# Measured values published in ChEMBL document CHEMBL1201862, “PubChem BioAssay data set” (2004).
# Active and inactive are the calls of the source.
# Tests used:
# [1] = molecular target: T1, RNA-binding protein pos-1 (Caenorhabditis elegans, UniProt G5EF15); assay: inhibitors of POS-1/mex-3 RNA binding, dose response, biochemical, fluorescence polarization (AID 1964);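 note: purified POS-1 fused to maltose binding protein made in E. coli; potency of compounds blocking POS-1 binding to fluorescent RNA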
# T1 sequence (G5EF15 whole entry): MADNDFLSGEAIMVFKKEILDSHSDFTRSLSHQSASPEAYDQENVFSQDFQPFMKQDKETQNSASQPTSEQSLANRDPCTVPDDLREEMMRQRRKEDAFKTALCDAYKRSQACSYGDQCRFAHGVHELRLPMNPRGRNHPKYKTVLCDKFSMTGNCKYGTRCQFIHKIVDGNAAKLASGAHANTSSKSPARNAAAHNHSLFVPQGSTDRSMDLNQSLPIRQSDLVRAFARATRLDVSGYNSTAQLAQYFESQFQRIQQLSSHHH
# [2] = molecular target: T2, Zinc finger protein mex-5 (Caenorhabditis elegans, UniProt Q9XUB2); assay: MEX-5/TCR-2 RNA interaction inhibitors, dose response, biochemical, C. elegans, fluorescence polarization (AID 1960)
# T2 sequence (Q9XUB2 whole entry): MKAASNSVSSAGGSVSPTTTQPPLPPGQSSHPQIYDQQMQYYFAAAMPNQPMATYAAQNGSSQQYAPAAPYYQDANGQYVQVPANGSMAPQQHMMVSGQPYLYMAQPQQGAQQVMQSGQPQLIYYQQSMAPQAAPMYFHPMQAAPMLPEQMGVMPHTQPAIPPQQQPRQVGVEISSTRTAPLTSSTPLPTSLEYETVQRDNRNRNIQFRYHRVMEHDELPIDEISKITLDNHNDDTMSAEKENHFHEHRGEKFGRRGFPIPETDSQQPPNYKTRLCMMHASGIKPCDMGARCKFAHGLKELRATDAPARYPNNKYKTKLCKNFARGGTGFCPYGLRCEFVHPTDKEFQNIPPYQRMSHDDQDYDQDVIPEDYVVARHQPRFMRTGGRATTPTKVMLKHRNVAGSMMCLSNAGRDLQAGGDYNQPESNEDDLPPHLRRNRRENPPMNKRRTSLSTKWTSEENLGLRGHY
# Beta-lactamase [3] = molecular target: Beta-lactamase (Pseudomonas aeruginosa, UniProt Q79MP6);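 note: biochemical dose-response test of metallo-beta-lactamase enzyme inhibition, read out by epi-absorbance; purified recombinant IMP-1 metallo-beta-lactamase with nitrocefin as substrate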
# Sequence of Beta-lactamase (Pseudomonas aeruginosa, UniProt Q79MP6) (Q79MP6 whole entry): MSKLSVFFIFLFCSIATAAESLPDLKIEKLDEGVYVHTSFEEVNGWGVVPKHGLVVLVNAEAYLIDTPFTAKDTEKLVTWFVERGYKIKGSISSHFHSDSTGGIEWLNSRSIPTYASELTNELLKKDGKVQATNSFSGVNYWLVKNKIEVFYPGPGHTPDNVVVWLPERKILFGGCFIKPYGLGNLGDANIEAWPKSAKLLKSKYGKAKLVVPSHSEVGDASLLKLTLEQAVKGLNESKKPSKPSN
# Beta-lactamase [4] = molecular target: Beta-lactamase (Salmonella choleraesuis (strain SC-B67), UniProt Q5J463)
# [5] = molecular target: Voltage-dependent T-type calcium channel subunit alpha-1H (Homo sapiens, UniProt O95180); format: functional;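 note: channel activity triggered by adding a high calcium stimulation buffer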
# ORF 73 = ORF 73 (Human herpesvirus 8, UniProt O40947); assay: inhibitors of C-LANA binding to LBS DNA, dose response, biochemical, fluorescence polarization, cherry-picked samples (AID 504725); design: species or system Human gammaherpesvirus 8;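 note: fluorescence polarization of a labeled DNA duplex reporting LANA DNA binding; potency is for inhibitors that block LANA binding to the DNA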
# Sequence of ORF 73 (O40947 whole entry): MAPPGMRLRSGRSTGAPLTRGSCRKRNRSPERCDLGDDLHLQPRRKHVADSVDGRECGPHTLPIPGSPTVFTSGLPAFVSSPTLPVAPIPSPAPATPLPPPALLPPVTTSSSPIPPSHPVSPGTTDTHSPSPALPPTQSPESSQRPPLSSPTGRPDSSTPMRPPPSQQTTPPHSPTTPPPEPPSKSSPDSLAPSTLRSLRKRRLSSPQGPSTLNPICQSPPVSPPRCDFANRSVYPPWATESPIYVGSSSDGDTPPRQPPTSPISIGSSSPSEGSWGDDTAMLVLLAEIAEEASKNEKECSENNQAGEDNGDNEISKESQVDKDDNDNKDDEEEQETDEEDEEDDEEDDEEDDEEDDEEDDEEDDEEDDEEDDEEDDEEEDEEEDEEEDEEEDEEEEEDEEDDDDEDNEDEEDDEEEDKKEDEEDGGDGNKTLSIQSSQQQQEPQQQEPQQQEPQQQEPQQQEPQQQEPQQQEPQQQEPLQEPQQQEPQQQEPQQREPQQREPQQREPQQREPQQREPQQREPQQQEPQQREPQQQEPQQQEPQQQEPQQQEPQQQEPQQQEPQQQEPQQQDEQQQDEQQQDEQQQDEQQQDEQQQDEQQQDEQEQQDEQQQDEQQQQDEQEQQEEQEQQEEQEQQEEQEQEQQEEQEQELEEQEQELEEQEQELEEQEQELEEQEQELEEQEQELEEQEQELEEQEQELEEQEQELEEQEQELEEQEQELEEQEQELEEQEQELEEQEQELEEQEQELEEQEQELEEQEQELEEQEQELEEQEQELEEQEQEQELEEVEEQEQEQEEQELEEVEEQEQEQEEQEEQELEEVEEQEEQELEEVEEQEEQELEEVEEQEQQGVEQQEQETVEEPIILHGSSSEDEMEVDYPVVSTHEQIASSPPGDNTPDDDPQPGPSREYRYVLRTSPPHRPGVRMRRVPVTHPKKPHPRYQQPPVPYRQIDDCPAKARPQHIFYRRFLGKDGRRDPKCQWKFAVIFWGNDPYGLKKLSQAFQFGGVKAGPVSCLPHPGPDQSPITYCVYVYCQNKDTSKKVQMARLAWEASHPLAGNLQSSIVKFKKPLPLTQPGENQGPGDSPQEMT
# Keap1/Nrf2 = Keap1/Nrf2 (Homo sapiens, UniProt Q14145); assay: Keap1-Nrf2 protein-protein interaction inhibitors, dose response, biochemical, fluorescence polarization, cherry-picked samples (AID 588683)
# Sequence of Keap1/Nrf2 (Q16236 whole entry): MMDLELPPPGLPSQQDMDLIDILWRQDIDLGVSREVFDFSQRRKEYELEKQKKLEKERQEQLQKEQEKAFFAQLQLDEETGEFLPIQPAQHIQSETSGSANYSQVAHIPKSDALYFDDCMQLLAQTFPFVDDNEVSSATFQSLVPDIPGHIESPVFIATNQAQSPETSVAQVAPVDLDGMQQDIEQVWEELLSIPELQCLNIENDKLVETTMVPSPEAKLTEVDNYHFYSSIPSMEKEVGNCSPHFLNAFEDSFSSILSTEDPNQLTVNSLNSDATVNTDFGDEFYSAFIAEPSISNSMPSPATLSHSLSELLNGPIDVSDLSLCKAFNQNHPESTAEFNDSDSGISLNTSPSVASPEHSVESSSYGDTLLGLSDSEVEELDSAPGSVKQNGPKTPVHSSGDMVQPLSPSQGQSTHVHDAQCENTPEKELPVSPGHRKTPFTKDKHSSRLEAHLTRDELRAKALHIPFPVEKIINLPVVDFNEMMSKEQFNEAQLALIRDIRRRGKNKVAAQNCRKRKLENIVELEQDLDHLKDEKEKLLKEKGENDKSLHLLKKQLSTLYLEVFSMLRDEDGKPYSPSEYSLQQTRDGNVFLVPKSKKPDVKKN
# Sequence of Keap1/Nrf2 (Q14145 whole entry): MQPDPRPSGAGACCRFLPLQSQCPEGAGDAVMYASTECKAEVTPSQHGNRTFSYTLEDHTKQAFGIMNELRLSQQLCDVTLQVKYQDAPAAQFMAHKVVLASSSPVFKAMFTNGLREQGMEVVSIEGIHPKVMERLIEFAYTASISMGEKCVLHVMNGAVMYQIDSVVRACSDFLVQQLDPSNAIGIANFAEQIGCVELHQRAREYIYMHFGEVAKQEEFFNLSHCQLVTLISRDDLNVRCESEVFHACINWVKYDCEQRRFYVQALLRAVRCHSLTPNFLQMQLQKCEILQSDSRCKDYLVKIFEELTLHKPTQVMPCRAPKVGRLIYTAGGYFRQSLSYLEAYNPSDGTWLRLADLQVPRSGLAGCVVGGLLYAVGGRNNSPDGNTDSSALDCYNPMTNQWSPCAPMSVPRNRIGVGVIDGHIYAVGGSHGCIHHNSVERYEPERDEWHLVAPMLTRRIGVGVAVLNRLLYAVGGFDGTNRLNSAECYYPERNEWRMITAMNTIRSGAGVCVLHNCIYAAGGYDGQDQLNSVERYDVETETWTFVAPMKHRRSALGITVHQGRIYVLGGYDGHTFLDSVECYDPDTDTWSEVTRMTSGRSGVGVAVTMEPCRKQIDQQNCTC
# SUMO-activating enzyme [6] = molecular target: T3, SUMO-activating enzyme (Homo sapiens, UniProt Q9UBT2); assay: SUMOylation inhibitor hit validation, confirmation, SUMOylation inhibitor project, biochemical, AlphaScreen (AID 2018); format: functional
# T3 sequence (Q9UBE0 whole entry): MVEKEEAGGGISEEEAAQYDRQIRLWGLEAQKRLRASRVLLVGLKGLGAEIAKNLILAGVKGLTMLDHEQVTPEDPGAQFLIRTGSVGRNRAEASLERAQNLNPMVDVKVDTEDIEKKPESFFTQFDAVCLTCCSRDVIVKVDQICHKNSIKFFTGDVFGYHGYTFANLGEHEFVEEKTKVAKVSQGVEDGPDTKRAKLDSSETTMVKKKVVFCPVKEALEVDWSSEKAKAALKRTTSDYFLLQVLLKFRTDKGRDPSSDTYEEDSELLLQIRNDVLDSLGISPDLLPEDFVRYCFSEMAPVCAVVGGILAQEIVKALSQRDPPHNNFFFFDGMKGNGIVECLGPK
# T3 sequence (Q9UBT2 whole entry): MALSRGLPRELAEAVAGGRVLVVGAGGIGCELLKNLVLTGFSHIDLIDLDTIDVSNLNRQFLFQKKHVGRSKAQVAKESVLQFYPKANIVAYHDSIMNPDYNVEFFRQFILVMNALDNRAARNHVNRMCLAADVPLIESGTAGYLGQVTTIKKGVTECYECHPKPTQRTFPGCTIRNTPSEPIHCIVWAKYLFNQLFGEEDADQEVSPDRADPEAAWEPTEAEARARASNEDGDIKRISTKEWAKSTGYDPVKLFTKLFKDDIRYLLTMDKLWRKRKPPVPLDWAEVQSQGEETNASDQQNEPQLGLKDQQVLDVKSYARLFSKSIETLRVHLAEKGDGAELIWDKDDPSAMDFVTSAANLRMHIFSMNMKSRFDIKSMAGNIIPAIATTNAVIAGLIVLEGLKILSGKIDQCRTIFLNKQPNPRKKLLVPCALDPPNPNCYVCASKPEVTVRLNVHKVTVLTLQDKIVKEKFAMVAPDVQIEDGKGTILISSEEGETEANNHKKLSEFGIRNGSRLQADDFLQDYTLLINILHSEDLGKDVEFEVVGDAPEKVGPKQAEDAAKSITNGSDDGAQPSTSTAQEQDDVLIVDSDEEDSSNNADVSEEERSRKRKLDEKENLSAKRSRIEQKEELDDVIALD
# SUMO-activating enzyme [7] = molecular target: T3, SUMO-activating enzyme; assay: inhibitors of in vitro SUMOylation cascade, primary screen, biochemical, HTRF, uHTS (AID 2006); format: protein-complex assay
# [8] = molecular target: Intestinal-type alkaline phosphatase (Mus musculus, UniProt P24822); assay: PubChem AID 488785; format: functional
# Sequence of Intestinal-type alkaline phosphatase (Mus musculus, UniProt P24822) (P24822 whole entry): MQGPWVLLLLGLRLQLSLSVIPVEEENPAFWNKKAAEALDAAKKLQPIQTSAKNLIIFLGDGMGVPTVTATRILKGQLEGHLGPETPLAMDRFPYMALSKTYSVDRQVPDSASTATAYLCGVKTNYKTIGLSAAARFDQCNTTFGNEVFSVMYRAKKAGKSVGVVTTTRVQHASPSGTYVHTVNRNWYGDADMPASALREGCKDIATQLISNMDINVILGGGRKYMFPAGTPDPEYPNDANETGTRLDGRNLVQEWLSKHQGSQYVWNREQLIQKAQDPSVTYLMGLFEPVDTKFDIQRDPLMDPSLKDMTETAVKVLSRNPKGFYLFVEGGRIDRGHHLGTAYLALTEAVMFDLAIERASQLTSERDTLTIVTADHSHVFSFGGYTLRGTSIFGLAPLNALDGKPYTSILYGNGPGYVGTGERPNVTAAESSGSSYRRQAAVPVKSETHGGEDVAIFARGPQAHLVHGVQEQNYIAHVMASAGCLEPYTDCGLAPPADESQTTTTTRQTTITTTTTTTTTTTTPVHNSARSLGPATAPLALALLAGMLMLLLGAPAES
# [9] = molecular target: T4, Alkaline phosphatase, tissue-nonspecific isozyme (Homo sapiens, UniProt P05186); assay: TNAP enzyme inhibition by screening hits, dose response, selectivity assay for mouse IAP inhibitor project, biochemical, human TNAP, uHTS hits (AID 488906); format: functional
# T4 sequence (P05186 whole entry): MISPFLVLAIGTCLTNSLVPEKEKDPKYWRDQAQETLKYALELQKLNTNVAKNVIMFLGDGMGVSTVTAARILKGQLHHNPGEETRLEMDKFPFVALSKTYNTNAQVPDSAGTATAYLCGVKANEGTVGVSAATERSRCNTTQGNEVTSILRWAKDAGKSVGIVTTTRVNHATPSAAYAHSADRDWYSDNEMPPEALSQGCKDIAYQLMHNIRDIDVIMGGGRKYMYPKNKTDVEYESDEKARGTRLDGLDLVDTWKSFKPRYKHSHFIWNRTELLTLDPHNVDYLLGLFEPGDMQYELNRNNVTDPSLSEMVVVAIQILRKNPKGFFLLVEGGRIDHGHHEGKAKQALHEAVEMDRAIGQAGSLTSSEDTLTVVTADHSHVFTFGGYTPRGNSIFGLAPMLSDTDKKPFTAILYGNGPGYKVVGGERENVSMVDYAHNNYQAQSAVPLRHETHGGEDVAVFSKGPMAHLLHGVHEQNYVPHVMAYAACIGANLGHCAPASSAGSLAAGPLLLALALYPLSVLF
# Cysteine protease ATG4B = molecular target: T5, Cysteine protease ATG4B (Homo sapiens, UniProt Q9Y4P1); format: functional;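 note: Fluorescence-based dose-response confirmation assay measuring inhibition of ATG4B activity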
# T5 sequence (Q9Y4P1 whole entry): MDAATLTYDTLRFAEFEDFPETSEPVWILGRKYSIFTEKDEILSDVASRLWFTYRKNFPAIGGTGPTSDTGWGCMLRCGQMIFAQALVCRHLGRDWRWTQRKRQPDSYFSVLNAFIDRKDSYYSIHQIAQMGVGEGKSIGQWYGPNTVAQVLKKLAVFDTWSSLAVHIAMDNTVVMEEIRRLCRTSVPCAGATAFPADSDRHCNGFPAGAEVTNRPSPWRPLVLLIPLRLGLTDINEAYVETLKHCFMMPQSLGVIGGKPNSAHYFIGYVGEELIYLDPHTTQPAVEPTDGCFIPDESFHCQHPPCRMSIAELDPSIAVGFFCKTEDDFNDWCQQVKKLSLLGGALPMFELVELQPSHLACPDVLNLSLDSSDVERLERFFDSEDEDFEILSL
# [10] = molecular target: Intestinal-type alkaline phosphatase (Homo sapiens, UniProt P09923); assay: inhibition of human intestinal alkaline phosphatase – biochemical, dose response (AID 488876); format: functional
# Phospholipase A2 = Phospholipase A2 (Homo sapiens, UniProt P04054); format: functional;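 note: confirmatory dose-response counterscreen on phospholipase A2, testing hits that came from an ultra-high-throughput screen for ATG4B inhibitors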
# [11] = molecular target: DNA (cytosine-5)-methyltransferase 1 (Homo sapiens, UniProt P26358); assay: DNMT1 methyltransferase inhibitors, confirmation, biochemical, fluorescent molecular beacon (AID 602386); format: functional
# [12] = molecular target: 26S proteasome non-ATPase regulatory subunit 14 (Homo sapiens, UniProt O00487); assay: inhibition of proteasome subunit RPN11 – biochemical, fluorescence polarization, uHTS hits, confirmation (AID 602368); format: functional
# [13] = molecular target: 72 kDa type IV collagenase (Homo sapiens, UniProt P08253); assay: Dose Response validation of uHTS RPN11 inhibitor hits using a MMP-2 Fluorescence assay.; format: functional
# Prothrombin = Prothrombin (Bos taurus, UniProt P00735); assay: thrombin inhibition, dose response, biochemical, fluorescence polarization, uHTS hits (AID 602369); format: functional
# [14] = molecular target: T6, Histone-lysine N-methyltransferase NSD2 (Homo sapiens, UniProt O96028); format: biochemical
# T6 sequence (O96028 whole entry): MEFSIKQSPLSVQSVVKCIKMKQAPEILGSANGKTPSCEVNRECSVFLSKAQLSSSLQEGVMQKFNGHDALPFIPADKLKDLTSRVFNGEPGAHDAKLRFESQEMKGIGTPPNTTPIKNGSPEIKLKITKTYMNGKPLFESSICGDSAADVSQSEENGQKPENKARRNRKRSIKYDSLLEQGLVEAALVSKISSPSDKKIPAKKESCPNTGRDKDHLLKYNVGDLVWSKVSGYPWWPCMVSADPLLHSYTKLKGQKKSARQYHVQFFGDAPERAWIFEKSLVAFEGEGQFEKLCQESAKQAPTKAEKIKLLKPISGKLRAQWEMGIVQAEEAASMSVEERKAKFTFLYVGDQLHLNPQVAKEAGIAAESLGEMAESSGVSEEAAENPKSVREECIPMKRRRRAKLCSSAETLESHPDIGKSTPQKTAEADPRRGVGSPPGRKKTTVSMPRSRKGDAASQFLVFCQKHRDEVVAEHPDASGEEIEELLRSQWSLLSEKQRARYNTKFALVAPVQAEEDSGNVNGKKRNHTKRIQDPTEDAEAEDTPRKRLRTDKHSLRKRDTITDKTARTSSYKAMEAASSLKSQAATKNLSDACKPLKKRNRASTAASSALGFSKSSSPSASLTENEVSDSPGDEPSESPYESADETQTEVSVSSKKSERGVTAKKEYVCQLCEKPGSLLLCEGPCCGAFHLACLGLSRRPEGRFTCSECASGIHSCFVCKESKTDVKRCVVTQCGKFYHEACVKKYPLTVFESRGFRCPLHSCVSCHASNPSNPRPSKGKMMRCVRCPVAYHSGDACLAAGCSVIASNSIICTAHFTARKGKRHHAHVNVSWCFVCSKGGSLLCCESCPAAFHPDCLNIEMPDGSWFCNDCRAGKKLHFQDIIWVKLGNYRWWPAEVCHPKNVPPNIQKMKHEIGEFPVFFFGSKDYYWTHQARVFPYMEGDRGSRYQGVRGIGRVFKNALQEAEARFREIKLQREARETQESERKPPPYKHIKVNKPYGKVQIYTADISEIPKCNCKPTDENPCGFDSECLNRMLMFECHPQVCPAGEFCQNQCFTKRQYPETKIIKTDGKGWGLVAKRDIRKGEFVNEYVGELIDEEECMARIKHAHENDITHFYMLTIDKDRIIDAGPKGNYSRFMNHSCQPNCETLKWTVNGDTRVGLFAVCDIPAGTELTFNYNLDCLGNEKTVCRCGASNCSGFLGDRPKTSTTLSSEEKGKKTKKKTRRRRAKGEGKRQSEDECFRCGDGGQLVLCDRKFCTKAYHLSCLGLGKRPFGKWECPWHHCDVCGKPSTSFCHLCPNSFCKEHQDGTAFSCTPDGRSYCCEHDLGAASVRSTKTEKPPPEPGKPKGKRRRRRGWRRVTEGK
# [15] = molecular target: T7, Tyrosyl-DNA phosphodiesterase 2 (Homo sapiens, UniProt O95551); assay: human TDP2 enzyme inhibitors, dose response, biochemical, epi absorbance, IC50 (AID 743297)
# T7 sequence (O95551 whole entry): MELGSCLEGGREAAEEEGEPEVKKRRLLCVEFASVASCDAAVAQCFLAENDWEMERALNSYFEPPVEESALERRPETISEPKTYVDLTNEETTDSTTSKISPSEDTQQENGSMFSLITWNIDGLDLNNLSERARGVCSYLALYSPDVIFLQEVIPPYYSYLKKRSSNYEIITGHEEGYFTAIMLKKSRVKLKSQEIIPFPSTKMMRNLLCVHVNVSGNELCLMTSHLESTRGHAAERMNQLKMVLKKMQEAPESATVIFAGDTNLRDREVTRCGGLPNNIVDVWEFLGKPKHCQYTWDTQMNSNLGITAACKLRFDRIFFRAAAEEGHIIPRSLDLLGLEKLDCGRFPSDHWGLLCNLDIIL
# [16] = molecular target: T8, Heat shock factor protein 1 (Mus musculus, UniProt P38532); assay: inhibition of MG132-induced HSE-luciferase signal, confirmation, cell-based, NIH3T3, luminescence, dose retest (AID 2382); format: functional;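 note: NIH3T3 fibroblasts with HSF1-driven luciferase reporter stressed by proteasome inhibitor MG132; luminescence from HSF1-driven luciferase expression after 8 hours of MG132 stress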
# T8 sequence (P38532 whole entry): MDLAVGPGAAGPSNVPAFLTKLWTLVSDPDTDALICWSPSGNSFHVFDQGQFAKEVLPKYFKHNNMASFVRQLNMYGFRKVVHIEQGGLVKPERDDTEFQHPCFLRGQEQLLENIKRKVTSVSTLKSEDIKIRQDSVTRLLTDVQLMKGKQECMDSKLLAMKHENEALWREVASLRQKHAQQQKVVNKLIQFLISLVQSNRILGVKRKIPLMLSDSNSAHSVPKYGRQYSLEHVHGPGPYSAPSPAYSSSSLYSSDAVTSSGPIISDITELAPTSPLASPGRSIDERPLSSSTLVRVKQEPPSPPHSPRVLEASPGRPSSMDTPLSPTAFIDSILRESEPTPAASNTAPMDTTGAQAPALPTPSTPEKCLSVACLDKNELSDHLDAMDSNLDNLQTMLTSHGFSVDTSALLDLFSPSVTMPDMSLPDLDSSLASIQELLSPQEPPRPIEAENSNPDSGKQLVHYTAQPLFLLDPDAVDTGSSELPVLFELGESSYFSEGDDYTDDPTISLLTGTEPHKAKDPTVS
# [17] = molecular target: Heat shock protein HSP 90-alpha (Homo sapiens, UniProt P07900); format: functional, organism-based
# Genome polyprotein = Genome polyprotein (dengue virus type 2, UniProt P29990); assay: Dengue-2 NS5 methyltransferase inhibitors, primary screen, biochemical, confirmation dose response (AID 588689); format: functional
# Sequence of Genome polyprotein (P29990 2492-3391 limits assumed): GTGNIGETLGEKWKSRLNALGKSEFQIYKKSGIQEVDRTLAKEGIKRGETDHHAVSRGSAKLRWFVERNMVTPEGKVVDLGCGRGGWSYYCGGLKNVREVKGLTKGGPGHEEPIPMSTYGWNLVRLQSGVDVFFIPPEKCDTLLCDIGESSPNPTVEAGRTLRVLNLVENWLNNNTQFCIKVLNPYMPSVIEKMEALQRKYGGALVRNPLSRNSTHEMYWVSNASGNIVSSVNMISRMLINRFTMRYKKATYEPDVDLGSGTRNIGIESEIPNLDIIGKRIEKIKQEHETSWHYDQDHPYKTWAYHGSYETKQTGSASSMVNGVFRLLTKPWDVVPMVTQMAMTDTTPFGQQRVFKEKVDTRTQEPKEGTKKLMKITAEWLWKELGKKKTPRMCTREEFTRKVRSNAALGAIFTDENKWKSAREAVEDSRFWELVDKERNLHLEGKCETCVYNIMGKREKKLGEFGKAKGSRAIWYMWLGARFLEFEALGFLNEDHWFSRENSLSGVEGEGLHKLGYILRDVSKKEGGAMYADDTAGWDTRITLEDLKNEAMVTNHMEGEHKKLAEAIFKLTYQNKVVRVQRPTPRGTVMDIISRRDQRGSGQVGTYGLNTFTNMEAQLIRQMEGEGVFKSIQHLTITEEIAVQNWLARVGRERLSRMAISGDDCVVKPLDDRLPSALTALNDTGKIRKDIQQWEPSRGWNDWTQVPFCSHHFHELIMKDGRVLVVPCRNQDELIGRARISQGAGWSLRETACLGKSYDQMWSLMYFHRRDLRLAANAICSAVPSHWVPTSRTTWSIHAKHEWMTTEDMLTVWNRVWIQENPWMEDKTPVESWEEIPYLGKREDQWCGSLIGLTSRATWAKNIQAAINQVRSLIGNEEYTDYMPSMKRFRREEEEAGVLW
# [18] = molecular target: DNA dC->dU-editing enzyme APOBEC-3A (Homo sapiens, UniProt P31941); assay: APOBEC3A DNA deaminase inhibitors, dose response, biochemical (AID 504722); format: functional
# [19] = molecular target: DNA dC->dU-editing enzyme APOBEC-3G (Homo sapiens, UniProt Q9HC16); assay: Dose Response confirmation of small molecule APOBEC3G DNA Deaminase Inhibitors via a fluorescence-based single-stranded DNA deaminase assay. [Related pubchem assays (depositor defined):AID493012, AID493028]; format: functional
smiles,measurement,setting,value
Cc1n[nH]c(C)c1N1C(=O)c2cccc3c(N4CCCCCC4)ccc(c23)C1=O,EC50,[1],6.94 µM (inconclusive)
same,EC50,[2],1.72 µM (inconclusive)
same,IC50,Beta-lactamase [3],> 59.6 µM (inactive)
same,IC50,Beta-lactamase [4],27.8 µM (inactive)
same,EC50,[5],1.04 µM (active)
same,AC50,ORF 73,> 350 µM (inactive)
same,AC50,Keap1/Nrf2,32.5 µM (active)
COc1cc(NS(=O)(=O)c2ccc(NC(=S)NC(=O)/C=C/c3ccco3)cc2)ncn1,IC50,SUMO-activating enzyme [6],2.41 µM (active)
same,IC50,SUMO-activating enzyme [7],26.1 µM (active)
same,IC50,[8],18.4 µM (active)
same,IC50,[9],45.9 µM (active)
same,IC50,Cysteine protease ATG4B,6 µM (active)
same,IC50,[10],> 100 µM (inactive)
same,IC50,Phospholipase A2,> 80 µM (inactive)
same,AC50,Keap1/Nrf2,> 52 µM (inactive)
same,IC50,[11],2.92 µM (active)
same,IC50,[12],12.9 µM (active)
same,IC50,[13],2.15 µM (active)
same,IC50,Prothrombin,20.5 µM (active)
same,AC50,[14],13.2 µM (active)
same,IC50,[15],30.4 µM (inactive)
COc1ccc(OC)c(N2C(=O)NC(=O)/C(=C\c3ccc([N+](=O)[O-])s3)C2=O)c1,EC50,[16],> 195 µM (not active)
same,AC50,ORF 73,90.7 µM (active)
same,AC50,[17],4.17 µM (active)
same,IC50,Genome polyprotein,39.9 µM (active)
Sc1nnc(COc2ccccc2)n1/N=C/c1ccccn1,IC50,[18],> 100 µM (inactive)
same,IC50,[19],3.99 µM (active)
